Entries after “also recorded” stand apart in the source; their conditions may differ.
Tests used:
NCI-H358 = test: Cell viability assay (CellTiter-Glo), NCI-H358; assay type: cell-based, human; settings: Day 5, CellTiter-Glo
Procedure: (§1) Cell lines and maintenance: All cell lines used for in vitro and in vivo studies were supplied as part of Crown Biosciences cell bank except KYSE520, which was provided by HUYABIO. All cell lines were maintained according to source at 37° C. and 5% CO2 unless otherwise noted. Human Lung cancer cell lines NCI-H358, HCC827, Esophageal cancer cell line KYSE520, Stomach cancer cell line NCI-N87 and Mouse Colon cancer cell line MC38 were cultured in RPMI1640+10% FBS. Pancreatic cell line MiaPaca-2 was cultured in MDME+10% FBS+2.5% HS. Pancreatic cancer cell line CAPAN-1 was cultured in IMDM+20% FBS. Brain cancer cell line U87MG was cultured in MEM+0.01 mM NEAA+10% FBS. Lung cancer cell line HCC827-ER1 (Derived from HCC827 at Crown Biosciences) was cultured in RPMI1640+10% FBS+42 μM erlotinib. Lung cancer cell line NCI-H1975 (developed at Synthego Corporation) was cultured in RPMI1640+10% FBS+100 μg/ml Hygromycin (Sun, 2020).
(§2) Cell Viability Assay: For cell cytotoxicity assays, cells were plated in 96-well plates and plating densities were determined on the basis of Crown Biosciences Cell line Database. Cells were plated at 2000 cells/well. Twenty four hours after plating, cells were treated with inhibitors at the indicated compound concentrations. On Day 5, cells were lysed with CellTiter-Glo® Luminescent Cell Viability Assay reagent (Promega) and luminescence was read using the EnVision Multi-plate reader. To calculate IC50 values, a dose-response curve is generated using a nonlinear regression model with a sigmoidal dose response. The formula of surviving rate is shown below. IC50 values were automatically generated by GraphPad Prism 8.0. The results of these assays are depicted in FIG. 1 and Table 1, and further in FIG. 9A (HCC827-ER1) and 9B (NCI-H1975 (L858R/T790M/C797S)).

NCI-H1975 = test: Cell viability assay (CellTiter-Glo), NCI-H1975; assay type: cell-based; settings: Day 5, CellTiter-Glo
Procedure: as §1, §2

MIAPaCa-2 = test: Cell viability assay (CellTiter-Glo), MIAPaCa-2; assay type: cell-based; settings: Day 5, CellTiter-Glo
Procedure: as §1
(§3) Cell Viability Assay: For cell cytotoxicity assays, cells were plated in 96-well plates and plating densities were determined on the basis of Crown Biosciences Cell line Database. Cells were plated at 2000 cells/well. […] On Day 5, cells were lysed with CellTiter-Glo® Luminescent Cell Viability Assay reagent (Promega) and luminescence was read using the EnVision Multi-plate reader. […]

U87MG = test: Cell viability assay (CellTiter-Glo), U87MG; assay type: cell-based; settings: Day 5, CellTiter-Glo
Procedure: as §1, §2

Capan-1 = test: Cell viability assay (CellTiter-Glo), Capan-1; assay type: cell-based; settings: Day 5, CellTiter-Glo
Procedure: as §1, §3

KYSE 520 = test: Cell viability assay (CellTiter-Glo), KYSE 520; assay type: cell-based, human; settings: Day 5, CellTiter-Glo
Procedure: as §1, §2

NCI-N87 = test: Cell viability assay (CellTiter-Glo), NCI-N87; assay type: cell-based, human; settings: Day 5, CellTiter-Glo
Procedure: as §1, §2

HCC827 = test: Cell viability assay (CellTiter-Glo), HCC827; assay type: cell-based, human; settings: Day 5, CellTiter-Glo
Procedure: as §1, §2

[1] = test system: lung cancer cell line HCC827-ER1; test: Cell viability assay, HCC827-ER1 (FIG. 9A); assay type: cell-based, human
Procedure: as §1, §3

[2] = test system: NCI-H1975 (L858R/T790M/C797S); test: Cell viability assay, Osimertinib resistant NCI-H1975 (FIG. 9B); assay type: cell-based
Procedure: as §1, §3

cancer cell lines = test: Cell proliferation assays, cell line panel (FIG. 1); assay type: cell-based; settings: compared with GH21001 (TNO-155), RMC-4550, Cisplatin
Procedure: as §1, §3

MC38 tumors = test: Tumor and blood immunotyping (FACS) in MC38 model; assay type: in vivo, mouse
Procedure: All cell lines were maintained in culture and cells in exponential growth phase were harvested and quantitated by cell counter before tumor inoculation. MC38 tumor cells (1×10^6) in 0.1 ml of PBS were inoculated into the right front flank of female C57/Bl animals, mean tumor size approximately 112 mm^3 at the start of treatment. NCI-H1975 (EGFR L858R/[…]/C797S) tumor cells (1×10^7) in 0.1 ml of PBS mixed with Matrigel (1:1) inoculated into female NOD/SCID animals, mean tumor approximately 200 mm^3 at the start of treatment. HCC827-ER1 tumor cells (5×10^7) in 0.1 ml of PBS mixed with Matrigel (1:1) inoculated into female Balb/C Nude animals, mean tumor approximately 325 mm^3 at the start of treatment.
The date of randomization and treatment initiation was denoted as day 0. Tumor volumes were measured twice per week in two dimensions using a caliper, and the volume will be expressed in mm^3 using the formula: V=(L×W×W)/2, where V is tumor volume, L is tumor length (the longest tumor dimension) and W is tumor width (the longest tumor dimension perpendicular to L). Dosing volume was 10 mL/kg/day. GH21001 and GH21005 were dissolved in HP-β-CD with 200 ml of 50 mM sodium citrate (pH=4.2). Anti-PD-1 and Rat IgG2a were diluted in PBS. RMC-4550 was diluted in 1% Capitsol in 50 mM sodium citrate (pH=5.0) 0.5% dosing solution of osimertinib was diluted in 2% DMSO/30% PEG300. The results of these experiments are depicted in FIG. 2A-B (MC38 tumors) and FIG. 10A-10B (NCI-H1975 (L858R/T790M/C797S) tumors). The results for HCC827 CDX model are depicted in FIG. 12A-B. Upon termination, tumors were collected. A portion of the tumor was minced and snap frozen immediately for protein isolation or tumor tissue was dissociated for FACs analysis. Another portion of the tumor was fixed in 10% neutral buffered formalin prior to processing into paraffin blocks.
Tumor dissociation: Upon termination animals bearing MC38 tumors, tumors and blood was harvested 12 hours post last dose. Tumors were enzymatically and mechanically dissociated using The Tumor Dissociation Kit (130-096-730) Miltenyi Biotec MACS Technology. Mononuclear blood cells (PBMCs) were isolated from whole blood using Histopaque-1077 (Sigma).
Tumor cell suspension, whole lysed blood or isolated PBMCs were resuspended and blocked in staining buffer with 1 μg/ml Fc-Block (Mouse BD Fc Block™ CAT #553141). All antibodies were diluted in Fc Blocking buffer except FoxP3 which was diluted in Permeabilization Buffer. Antibodies were diluted according to Crown Biosciences optimization. Cell surface markers CD45, CD4, CD335, CD11b, Gr-1 were purchased from Biolegend. CD3 was purchased from BD Biosciences. CD8, FoxP3 and LD BD were purchased from eBiosciences. Data was collected on a cytometer and data was analyzed using Kaluza Analysis Software. The results of these experiments are depicted in FIG. 3 (macrophages), FIG. 4 (monocytes), FIG. 5 (granulocytes), FIG. 6 (CD3+ cells), FIG. 7 (CD4+ cells), and FIG. 8 (CD8+ cells).

KC/GRO = test: Cytokine detection assay (V-Plex Proinflammatory Panel 1 Mouse Kit) in plasma; assay type: in vivo; settings: FIG. 11; tumor bearing animals, 2 hours post last dose; versus GH21001 (TNO-155) and RMC-4550; listed as Formula (Ia)
Procedure: Cytokine detection assay: V-Plex Proinflammatory Panel 1 Mouse Kit (Mesoscale Discovery) was used to determine cytokine levels in plasma isolated from tumor bearing animals 2 hours post last dose. Plasma from tumor bearing animals was analyzed as described by the manufacture's guidelines. Briefly, diluted plasma is introduced to the MSD plate pre-coated with capture antibodies to KC/GRO. After incubation, samples are washed and incubated with secondary detection antibody, (MSD SULFO-TAG™). Electrochemiluminescence detection from the assay is analyzed on the Meso Scale Discovery platform and cytokine levels calculated according to manufacturer's control samples.

Row | IC50 (NCI-H358; Homo sapiens, 120 h) [nM] | IC50 (U87MG; Homo sapiens, U-87 MG, 120 h) [nM] | IC50 (HCC827; Homo sapiens, 120 h) [nM] | Compound | IC50 (NCI-H358) [nM] | IC50 (NCI-H1975) [nM] | IC50 (U87MG) [nM] | IC50 (KYSE 520) [nM] | IC50 (NCI-N87) [nM] | IC50 (HCC827) [nM] | IC50 (KYSE 520; Homo sapiens, 120 h) [nM] | IC50 (NCI-N87; Homo sapiens, 120 h) [nM] | other results
1 | – | – | – | N.N.[Cl][Pt][Cl] [Cisplatin] | 4850 | 3990 | 1580 | 6800 | 2350 | 4790 | – | – | IC50 (MIAPaCa-2): 7150 nM; IC50 (Capan-1): 270 nM
2 | 460 | 1530 | 410 | C[C@@H]1OCC2(CCN(c3cnc(Sc4ccnc(N)c4Cl)c(N)n3)CC2)[C@@H]1N [GH21001] | – | – | – | – | – | – | 450 | 230 | IC50 (Capan-1; Homo sapiens, 120 h): 6060 nM
3 | 30 | 230 | 20 | C[C@@H]1OCC2(CCN(c3cnc(Sc4cccc(NC(=O)c5c(O)nc6n(c5=O)CCCC6)c4Cl)cn3)CC2)[C@@H]1N [GH21005, N-(3-((5-((3S,4S)-4-amino-3-methyl-2-oxa-8-azaspiro[4.5]decan-8-yl)pyrazin-2-yl)thio)-2-chlorophenyl)-2-hydroxy-4-oxo-6,7,8,9-tetrahydro-4H-pyrido[1,2-a]pyrimidine-3-carboxamide] | – | – | – | – | – | – | 60 | 10 | IC50 (NCI-H1975; Homo sapiens, 120 h): 210 nM; viability of lung cancer cell line HCC827-ER1 [1]: reduces viability; viability of Osimertinib resistant cancer cell line NCI-H1975 (L858R/T790M/C797S) [2]: reduces viability; potency in cell proliferation assays versus other agents (cancer cell lines): greater potency in cell proliferation assays than other agents; macrophage populations in MC38 tumors (MC38 tumors; FIG. 3, harvested 12 hours post last dose): reduces macrophage populations; monocyte populations in MC38 tumors (MC38 tumors; FIG. 4, harvested 12 hours post last dose): increases monocyte populations; granulocyte populations in MC38 tumors (MC38 tumors; FIG. 5, harvested 12 hours post last dose): increases granulocyte populations; circulating CD3+ cell populations (MC38 tumors; FIG. 6, MC38 model, blood 12 hours post last dose): increases circulating CD3+ cell populations; circulating CD4+ cell populations (MC38 tumors; FIG. 7, MC38 model, blood 12 hours post last dose): increases circulating CD4+ cell populations; circulating CD8+ cell populations (MC38 tumors; FIG. 8, MC38 model, blood 12 hours post last dose): increases circulating CD8+ cell populations; KC/GRO level in plasma (KC/GRO): significantly reduced KC/GRO as compared to GH21001 (TNO-155) and RMC-4550; also recorded: reduces KC/GRO significantly more than GH21001 (TNO-155) and RMC-4550
4 | – | – | – | Cc1nc(N2CCC3(CC2)CO[C@@H](C)[C@H]3N)c(CO)nc1-c1cccc(Cl)c1Cl [RMC-4550] | 440 | 1440 | 3900 | 490 | 260 | 690 | – | – | –
